ChEMBL document CHEMBL1201862, “PubChem BioAssay data set” (2004)
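Results reflect a 48-hour exposure of cells in 96-well plates to compound at five concentrations. The concentration for 50% growth inhibition is given as GI50.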 Activity calls are given as the source filed them. Rule as the data show it: active = GI50 up to about 1.1 µM and inactive = higher.

Tests used:
Assay in all cases: NCI tumour cell line growth inhibition, 48 h
SNB-75 = test system: SNB-75
M14 = test system: M14
KM12 = test system: KM12
OVCAR-5 = test system: OVCAR-5
EKVX = test system: EKVX
SW-620 = test system: SW-620
NCI-H23 = test system: NCI-H23
MOLT-4 = test system: MOLT-4
PC-3 = test system: PC-3
SNB-19 = test system: SNB-19
MCF7 = test system: MCF7
ACHN = test system: ACHN
786-0 = test system: 786-0
MDA-MB-435 = test system: MDA-MB-435
UACC-62 = test system: UACC-62
SF-539 = test system: SF-539
UACC-257 = test system: UACC-257
RXF 393 = test system: RXF 393
T47D = test system: T47D

Measured: GI50

O=C(NC(CS)C(=O)O)c1cccc2c(=O)c3ccccc3[nH]c12 (stereo unspecified)
inactive: SNB-75 > 100 µM | M14 > 100 µM | KM12 > 100 µM | OVCAR-5 > 100 µM | EKVX > 100 µM | SW-620 > 100 µM | NCI-H23 > 100 µM | MOLT-4 > 100 µM | PC-3 > 100 µM | SNB-19 > 100 µM | MCF7 > 100 µM | ACHN > 100 µM | 786-0 > 100 µM | MDA-MB-435 > 100 µM | UACC-62 > 100 µM

N#Cc1c(NN)nc(NN)c(C#N)c1-c1ccccc1
inactive: SNB-75 > 100 µM | M14 > 100 µM | KM12 > 100 µM | SF-539 > 100 µM | OVCAR-5 > 100 µM | EKVX > 100 µM | SW-620 > 100 µM | NCI-H23 > 100 µM | MOLT-4 > 100 µM | SNB-19 > 100 µM | ACHN > 100 µM | 786-0 > 100 µM | UACC-257 > 100 µM | RXF 393 96.6 µM | UACC-62 > 100 µM

CCC(=O)c1cn(C)c(=O)c2ccccc12
inactive: SNB-75 36.5 µM | M14 > 100 µM | KM12 > 100 µM | SF-539 > 100 µM | OVCAR-5 > 100 µM | EKVX > 100 µM | SW-620 > 100 µM | NCI-H23 > 100 µM | MOLT-4 > 100 µM | SNB-19 > 100 µM | ACHN > 100 µM | 786-0 > 100 µM | UACC-257 > 100 µM | RXF 393 > 100 µM | UACC-62 > 100 µM

O=S(=O)(O)CS(=O)(=O)OCCCl
inactive: SNB-75 > 100 µM | M14 > 100 µM | KM12 > 100 µM | SF-539 > 100 µM | OVCAR-5 > 100 µM | EKVX > 100 µM | SW-620 > 100 µM | NCI-H23 > 100 µM | MOLT-4 > 100 µM | SNB-19 > 100 µM | ACHN > 100 µM | 786-0 > 100 µM | UACC-257 > 100 µM | RXF 393 > 100 µM | UACC-62 > 100 µM

COC(=O)[C@@H]1CN(C(C)=O)C(=O)N1C(=O)OCc1ccccc1
inactive: M14 > 100 µM | KM12 > 100 µM | SF-539 > 100 µM | OVCAR-5 > 100 µM | EKVX > 100 µM | SW-620 > 100 µM | NCI-H23 > 100 µM | MOLT-4 > 100 µM | PC-3 > 100 µM | T47D > 100 µM | SNB-19 > 100 µM | ACHN > 100 µM | 786-0 > 100 µM | UACC-257 > 100 µM | RXF 393 > 100 µM | MDA-MB-435 > 100 µM

S=c1sc2c(n1-c1ccccc1)N=CNC2S (stereo unspecified)
inactive: SNB-75 56.6 µM | M14 > 100 µM | KM12 > 100 µM | SF-539 65.3 µM | OVCAR-5 > 100 µM | EKVX 64.1 µM | SW-620 > 100 µM | NCI-H23 63 µM | MOLT-4 92.5 µM | SNB-19 73.1 µM | ACHN 60.5 µM | 786-0 > 100 µM | UACC-257 48.8 µM | RXF 393 > 100 µM | UACC-62 43.7 µM

CSc1cnc2ccccc2c1Sc1c[nH]c2ccccc2c1=O
inactive: SNB-75 2.79 µM | M14 6.76 µM | KM12 6.82 µM | SF-539 11.5 µM | OVCAR-5 24.4 µM | EKVX 7.87 µM | SW-620 3.56 µM | NCI-H23 11.3 µM | MOLT-4 3.28 µM | SNB-19 20 µM | ACHN 15.1 µM | 786-0 15.3 µM | UACC-257 11.3 µM | RXF 393 13.7 µM | UACC-62 4.03 µM
